Patent publication US20160122342A1, “ENHANCER OF ZESTE HOMOLOG 2 INHIBITORS” (GLAXOSMITHKLINE INTELLECTUAL PROPERTY (NO.2) LIMITED, priority 2013, published 2016)
Counter-ions that a name gives are not always drawn. Like-named read-outs stand apart in the source and are kept apart here.

Target: T1, EZH2 within the PRC2 complex (Homo sapiens, UniProt Q15910)
T1 construct: FLAG; made in house; host or cells: Sf9 cells
Assay: Assay Protocol 1: EZH2 methyltransferase scintillation proximity assay, mononucleosome substrate
Format: biochemical
Protocol: Compounds contained herein were evaluated for their ability to inhibit the methyltransferase activity of EZH2 within the PRC2 complex. […] Mononucleosomes were captured on SPA beads and the resulting signal is read on a ViewLux plate reader. • 1. Prepare 10 mM stock of compounds from solid in 100% DMSO. • 2. […] Dispense 100 nL of compound from the dilution plate into reaction plates (Grenier Bio-One, 384-well, Cat#784075). Prepare the following solutions: • 1. 50 mM Tris-HCl, pH 8: Per 1 L of base buffer, combine 1 M Tris-HCl, pH 8 (50 mL) and distilled water (950 mL). • 2. 1× Assay Buffer: […] SPA Bead Suspension: […] Per 10 mL of 2× Substrate Solution, combine 1× Assay Buffer (9728.55 uL), 800 ug/mL mononucleosomes (125 uL), 1 mM cold SAM (4 uL), and 7.02 uM 3H-SAM (142.45 uL; 0.55 mCi/mL) to provide a final concentration of 5 ug/mL nucleosomes, 0.2 uM cold SAM, and 0.05 uM 3H-SAM. • 6. 2.67× Quench/Bead Mixture: Per 10 mL of 2.67× Quench/Bead Mixture, combine ddH2O (9358 uL), 10 mM cold SAM (267 uL), 40 mg/mL Bead Suspension (375 uL) to provide a final concentration of 100 uM cold SAM and 0.5 mg/mL SPA beads. • 1. Dispense 100 nL/well of 100× Compound to test wells (as noted above). • 2. […] • 1. Dispense 5 uL/well of 1× Assay Buffer to column 18 (low control reactions). • 2. Dispense 5 uL/well of 2× Enzyme Solution to columns 1-17, 19-24. • 3. Spin assay plates for ˜1 minute at 500 rpm. • 4. Stack the assay plates, covering the top plate. • 5. Incubate the compound/DMSO with the enzyme for 30 minutes at room temperature. • 6. Dispense 5 uL/well of 2× Substrate Solution to columns 1-24. • 7. Spin assay plates for ˜1 minute at 500 rpm. • 8. Stack the assay plates, covering the top plate. • 9. Incubate the assay plates at room temperature for 1 hour. • 1. Dispense 5 uL/well of the 3× Quench/Bead Mixture to columns 1-24. • 2. Seal the top of each assay plate with adhesive TopSeal. • 3. Spin assay plates for ˜1 minute at 500 rpm. • 4. […] • 1. Read the assay plates on the Viewlux Plate Reader utilizing the 613 nm emission filter with a 300 s read time. Reagent addition can be done manually or with automated liquid handler. The final DMSO concentration in this assay is 1%. The positive control is in column 6; negative control is in column 18. Final starting concentration of compounds is 100 μM. Percent inhibition was calculated relative to the DMSO control for each compound concentration and the resulting values were fit using standard IC50 fitting parameters within the ABASE data fitting software package.

[1] = Assay Protocol 1, SPA, 3H-SAM, Histone H3 of mononucleosome purified from HeLa cells, 5-member PRC2 complex, read-out: EZH2 IC50

T1 sequence (Q15910 whole entry): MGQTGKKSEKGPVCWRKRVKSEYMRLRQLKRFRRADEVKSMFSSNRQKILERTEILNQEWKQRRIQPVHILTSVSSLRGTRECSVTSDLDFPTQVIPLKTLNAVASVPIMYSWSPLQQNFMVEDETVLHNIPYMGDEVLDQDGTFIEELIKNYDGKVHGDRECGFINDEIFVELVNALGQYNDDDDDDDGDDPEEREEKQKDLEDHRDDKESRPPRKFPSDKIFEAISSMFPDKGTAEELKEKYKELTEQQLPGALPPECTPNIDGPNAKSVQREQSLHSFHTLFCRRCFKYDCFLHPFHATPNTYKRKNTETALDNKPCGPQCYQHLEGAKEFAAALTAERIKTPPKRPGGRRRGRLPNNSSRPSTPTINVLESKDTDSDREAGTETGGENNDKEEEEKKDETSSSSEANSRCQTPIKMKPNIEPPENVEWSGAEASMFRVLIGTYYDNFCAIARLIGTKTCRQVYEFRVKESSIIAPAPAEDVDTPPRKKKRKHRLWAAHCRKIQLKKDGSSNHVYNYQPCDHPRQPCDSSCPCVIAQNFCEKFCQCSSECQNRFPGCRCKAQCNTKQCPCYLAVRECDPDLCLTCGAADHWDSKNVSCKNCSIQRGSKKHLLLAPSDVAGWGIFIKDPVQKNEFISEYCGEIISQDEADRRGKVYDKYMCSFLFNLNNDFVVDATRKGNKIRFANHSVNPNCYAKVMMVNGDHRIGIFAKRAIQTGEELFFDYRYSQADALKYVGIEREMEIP
T1 sequence (O75530 whole entry partner): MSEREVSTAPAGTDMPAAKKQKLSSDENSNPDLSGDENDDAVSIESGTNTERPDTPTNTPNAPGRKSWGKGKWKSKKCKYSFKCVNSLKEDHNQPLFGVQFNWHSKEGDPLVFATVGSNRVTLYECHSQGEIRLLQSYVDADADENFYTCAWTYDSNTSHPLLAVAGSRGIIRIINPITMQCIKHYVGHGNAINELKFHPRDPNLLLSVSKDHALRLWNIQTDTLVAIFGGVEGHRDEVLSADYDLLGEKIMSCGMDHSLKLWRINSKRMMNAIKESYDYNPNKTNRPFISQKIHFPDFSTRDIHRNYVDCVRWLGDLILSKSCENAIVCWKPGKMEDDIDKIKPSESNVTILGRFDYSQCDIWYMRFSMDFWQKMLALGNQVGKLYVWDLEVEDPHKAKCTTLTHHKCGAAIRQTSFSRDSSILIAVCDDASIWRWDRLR
T1 sequence (Q15022 whole entry partner): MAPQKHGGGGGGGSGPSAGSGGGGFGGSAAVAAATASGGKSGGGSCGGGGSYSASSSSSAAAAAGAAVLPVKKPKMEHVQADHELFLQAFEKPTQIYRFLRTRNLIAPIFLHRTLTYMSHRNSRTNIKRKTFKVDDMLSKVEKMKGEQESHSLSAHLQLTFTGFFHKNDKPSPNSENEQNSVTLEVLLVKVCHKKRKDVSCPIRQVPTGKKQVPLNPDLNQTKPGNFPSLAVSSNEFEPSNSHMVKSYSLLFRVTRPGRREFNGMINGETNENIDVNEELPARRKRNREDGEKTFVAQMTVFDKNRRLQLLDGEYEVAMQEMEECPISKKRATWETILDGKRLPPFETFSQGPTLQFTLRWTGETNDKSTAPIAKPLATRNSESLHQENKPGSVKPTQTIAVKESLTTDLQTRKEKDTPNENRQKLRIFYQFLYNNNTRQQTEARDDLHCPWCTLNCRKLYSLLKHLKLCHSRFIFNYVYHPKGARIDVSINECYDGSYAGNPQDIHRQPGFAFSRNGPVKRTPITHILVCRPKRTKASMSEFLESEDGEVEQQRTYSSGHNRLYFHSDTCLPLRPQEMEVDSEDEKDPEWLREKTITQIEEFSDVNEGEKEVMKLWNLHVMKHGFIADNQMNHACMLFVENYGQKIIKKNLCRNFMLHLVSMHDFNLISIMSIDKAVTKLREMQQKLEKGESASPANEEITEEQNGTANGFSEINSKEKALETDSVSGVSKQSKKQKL
T1 sequence (Q09028 whole entry partner): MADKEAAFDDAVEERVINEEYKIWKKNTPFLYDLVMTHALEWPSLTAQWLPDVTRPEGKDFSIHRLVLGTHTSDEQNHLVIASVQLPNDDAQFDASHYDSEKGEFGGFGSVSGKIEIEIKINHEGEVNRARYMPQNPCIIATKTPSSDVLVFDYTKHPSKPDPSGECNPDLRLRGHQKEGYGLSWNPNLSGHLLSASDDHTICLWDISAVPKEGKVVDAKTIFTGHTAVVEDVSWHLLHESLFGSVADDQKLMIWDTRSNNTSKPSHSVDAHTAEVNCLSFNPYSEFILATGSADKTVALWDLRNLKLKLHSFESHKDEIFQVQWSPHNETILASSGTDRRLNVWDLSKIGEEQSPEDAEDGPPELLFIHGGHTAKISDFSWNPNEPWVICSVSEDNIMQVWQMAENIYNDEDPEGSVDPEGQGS
T1 sequence (Q6ZN18 whole entry partner): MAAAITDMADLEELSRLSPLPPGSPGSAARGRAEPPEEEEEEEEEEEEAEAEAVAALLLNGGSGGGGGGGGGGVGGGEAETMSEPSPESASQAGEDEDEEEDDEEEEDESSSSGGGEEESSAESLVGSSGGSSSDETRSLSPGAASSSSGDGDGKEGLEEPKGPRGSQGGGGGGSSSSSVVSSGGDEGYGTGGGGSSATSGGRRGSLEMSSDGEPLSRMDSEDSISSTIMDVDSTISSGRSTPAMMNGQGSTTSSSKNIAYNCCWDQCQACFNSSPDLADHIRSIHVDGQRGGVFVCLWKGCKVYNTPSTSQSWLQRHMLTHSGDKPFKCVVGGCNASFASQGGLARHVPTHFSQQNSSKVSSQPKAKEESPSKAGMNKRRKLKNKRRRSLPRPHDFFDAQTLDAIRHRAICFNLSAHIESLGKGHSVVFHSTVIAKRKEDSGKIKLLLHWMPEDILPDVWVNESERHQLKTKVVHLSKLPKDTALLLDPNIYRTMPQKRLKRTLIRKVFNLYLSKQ

Row | SMILES | IC50 [1] | IC50
1 | CCN(c1cccc2c1C/C=C\CC(C)c1cc(C)[nH]c(=O)c1CNC2=O)C1CCOCC1 (stereo not shown) [Example 22, (Z)-10-(ethyl(tetrahydro-2H-pyran-4-yl)amino)-3,5-dimethyl-5,6,15,16-tetrahydrobenzo[c]pyrido[4,3-j][1]azacyclododecine-1,14(2H,9H)-dione] | 6310 nM | 
2 | CCN(c1cccc2c1C/C=C\C(CO)Cc1cc(C)[nH]c(=O)c1CNC2=O)C1CCOCC1 (stereo not shown) [Example 26, (Z)-10-(ethyl(tetrahydro-2H-pyran-4-yl)amino)-6-(hydroxymethyl)-3-methyl-5,6,15,16-tetrahydrobenzo[c]pyrido[4,3-j][1]azacyclododecine-1,14(2H,9H)-dione] | 12600 nM | 
3 | CCN(c1cccc2c1C/C=C/CCc1cc(C)[nH]c(=O)c1CN(CCO)C2=O)C1CCOCC1 [Example 29, (E)-10-(ethyl(tetrahydro-2H-pyran-4-yl)amino)-15-(2-hydroxyethyl)-3-methyl-5,6,15,16-tetrahydrobenzo[c]pyrido[4,3-j][1]azacyclododecine-1,14(2H,9H)-dione] | 1260 nM | 
4 | CCN(c1cccc2c1C/C=C\COc1cc(C)[nH]c(=O)c1CNC2=O)C1CCOCC1 [Example 13, (Z)-10-(ethyl(tetrahydro-2H-pyran-4-yl)amino)-3-methyl-6,9,15,16-tetrahydro-1H-benzo[g]pyrido[4,3-b][1,5]oxaazacyclododecine-1,14(2H)-dione] | 794 nM | 
5 | CCN(c1cccc2c1CCCCC(C)c1cc(C)[nH]c(=O)c1CNC2=O)C1CCOCC1 (stereo not shown) [Example 24, 10-(ethyl(tetrahydro-2H-pyran-4-yl)amino)-3,5-dimethyl-6,7,8,9,15,16-hexahydrobenzo[c]pyrido[4,3-j][1]azacyclododecine-1,14(2H,5H)-dione] | 631 nM | 
6 | Cc1cc2c(c(=O)[nH]1)CNC(=O)c1cc(Cl)cc(O[C@H]3CC[C@H](N)CC3)c1C/C=C\CC2 [Example 4, (Z)-10-((trans-4-aminocyclohexyl)oxy)-12-chloro-3-methyl-5,6,15,16-tetrahydrobenzo[c]pyrido[4,3-j][1]azacyclododecine-1,14(2H,9H)-dione hydrochloride] |  | 2510 nM
7 | CCN(c1cc(Cl)cc2c1C/C=C\CCc1cc(C)[nH]c(=O)c1CNC2=O)C1CCOCC1 [Example 16, (Z)-12-chloro-10-(ethyl(tetrahydro-2H-pyran-4-yl)amino)-3-methyl-5,6,15,16-tetrahydrobenzo[c]pyrido[4,3-j][1]azacyclododecine-1,14(2H,9H)-dione hydrochloride] | 501 nM | 
8 | Cc1cc2c(c(=O)[nH]1)CNC(=O)c1cc(Cl)cc(O[C@H]3CC[C@H](N(C)C)CC3)c1C/C=C\CC2 [Example 5, (Z)-12-chloro-10-((trans-4-(dimethylamino)cyclohexyl)oxy)-3-methyl-5,6,15,16-tetrahydrobenzo[c]pyrido[4,3-j][1]azacyclododecine-1,14(2H,9H)-dione] | 2510 nM | 

Continued by falling IC50 [1], values first:

Row | IC50 [1] | SMILES | IC50
9 | 1590 nM | CCN(c1cccc2c1C/C=C\CCc1cc(C)[nH]c(=O)c1CNC2=O)C1CCOCC1 [Example 7, (Z)-10-(ethyl(tetrahydro-2H-pyran-4-yl)amino)-3-methyl-5,6,15,16-tetrahydrobenzo[c]pyrido[4,3-j][1]azacyclododecine-1,14(2H,9H)-dione hydrochloride, 0.10 1,4-dioxane solvate] | 
10 | 1000 nM | CCN(c1cccc2c1C/C=C/CN(C)Cc1cc(C)[nH]c(=O)c1CNC2=O)C1CCOCC1 [Example 10, (E)-11-(ethyl(tetrahydro-2H-pyran-4-yl)amino)-3,6-dimethyl-5,6,7,10,16,17-hexahydro-1H-benzo[h]pyrido[4,3-c][1,6]diazacyclotridecine-1,15(2H)-dione] | 
11 | 631 nM | CCN(c1cccc2c1CCCC(O)CCc1cc(C)[nH]c(=O)c1CNC2=O)C1CCOCC1 (stereo not shown) [Example 28, 11-(ethyl(tetrahydro-2H-pyran-4-yl)amino)-7-hydroxy-3-methyl-5,6,7,8,9,10,16,17-octahydro-1H-benzo[c]pyrido[4,3-k][1]azacyclotridecine-1,15(2H)-dione] | 
12 | 501 nM | CCN(c1cccc2c1CCCCOCc1cc(C)[nH]c(=O)c1CNC2=O)C1CCOCC1 [Example 11, 11-(ethyl(tetrahydro-2H-pyran-4-yl)amino)-3-methyl-7,8,9,10,16,17-hexahydrobenzo[h]pyrido[4,3-c][1,6]oxaazacyclotridecine-1,15(2H,5H)-dione] | 
13 | 501 nM | COc1cc(Cl)cc2c1C/C=C/CCc1cc(C)[nH]c(=O)c1CNC2=O [Example 15, (E)-12-chloro-10-methoxy-3-methyl-5,6,15,16-tetrahydrobenzo[c]pyrido[4,3-j][1]azacyclododecine-1,14(2H,9H)-dione] | 
14 | 316 nM | CCN(c1cccc2c1CCCC(CO)Cc1cc(C)[nH]c(=O)c1CNC2=O)C1CCOCC1 (stereo not shown) [Example 27, 10-(ethyl(tetrahydro-2H-pyran-4-yl)amino)-6-(hydroxymethyl)-3-methyl-6,7,8,9,15,16-hexahydrobenzo[c]pyrido[4,3-j][1]azacyclododecine-1,14(2H,5H)-dione] | 
15 | 158 nM | CCN(c1cccc2c1C/C=C/C(CO)Cc1cc(C)[nH]c(=O)c1CNC2=O)C1CCOCC1 (stereo not shown) [Example 25, (E)-10-(ethyl(tetrahydro-2H-pyran-4-yl)amino)-6-(hydroxymethyl)-3-methyl-5,6,15,16-tetrahydrobenzo[c]pyrido[4,3-j][1]azacyclododecine-1,14(2H,9H)-dione] | 
16 | 126 nM | CCN(c1cccc2c1C/C=C/CC(C)c1cc(C)[nH]c(=O)c1CNC2=O)C1CCOCC1 (stereo not shown) [Example 23, (E)-10-(ethyl(tetrahydro-2H-pyran-4-yl)amino)-3,5-dimethyl-5,6,15,16-tetrahydrobenzo[c]pyrido[4,3-j][1]azacyclododecine-1,14(2H,9H)-dione] | 
